For this test, the target named is Sodium-dependent noradrenaline transporter (Homo sapiens) (UniProt P23975). Briefly: NET transport inhibition via TRACT readout – HEK293 JumpIn overexpressing cells, impedance, dose response (AID 1745860). The note with it: HEK293 JumpIn SLC6A2 OE.
Sequence of Sodium-dependent noradrenaline transporter (Homo sapiens) (P23975 whole entry, looked up): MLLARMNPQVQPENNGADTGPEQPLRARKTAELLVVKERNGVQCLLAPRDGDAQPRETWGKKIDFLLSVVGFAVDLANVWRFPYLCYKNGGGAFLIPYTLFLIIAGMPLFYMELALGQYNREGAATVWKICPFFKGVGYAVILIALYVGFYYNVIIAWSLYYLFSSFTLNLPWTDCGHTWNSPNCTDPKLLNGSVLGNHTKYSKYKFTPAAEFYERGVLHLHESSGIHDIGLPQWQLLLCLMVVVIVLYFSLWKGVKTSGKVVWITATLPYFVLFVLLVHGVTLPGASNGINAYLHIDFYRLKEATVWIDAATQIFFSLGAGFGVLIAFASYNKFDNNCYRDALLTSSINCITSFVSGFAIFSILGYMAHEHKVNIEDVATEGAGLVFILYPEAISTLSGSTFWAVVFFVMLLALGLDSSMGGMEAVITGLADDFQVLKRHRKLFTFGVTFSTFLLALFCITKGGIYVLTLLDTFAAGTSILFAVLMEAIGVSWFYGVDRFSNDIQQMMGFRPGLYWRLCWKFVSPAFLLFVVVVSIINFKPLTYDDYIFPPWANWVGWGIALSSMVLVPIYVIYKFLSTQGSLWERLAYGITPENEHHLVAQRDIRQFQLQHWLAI

Consider `CNC[C@H](O)c1ccc(O)c(O)c1`, for which the IC50 – broadly, the concentration at which inhibition is half-maximal – is 4 µM.

Source of the values: PubChem BioAssay AID1745860.
